According to patent publication US12150998B2, “Bicyclic peptide ligands specific for P-selectin” (BicycleTx Limited, priority 2021, dated 2024):
Starred links: 1 amine or outer side, 2 acyl side, 3 side chain; linkers in the order of their positions; H or OH if unused. Positions of bridges follow the written chain, without caps; N, C: chain ends. Non-standard residues stand in square brackets, D forms with d. Residues, ends and D or L forms follow the SMILES beside them. Chains are numbered I, II in the order given. X2 = O=C(CCCC(=O)NCCOCCOCCOCCOCCOCCOCCOCCOCCOCCOCCOCCOCCOCCOCCOCCOCCOCCOCCOCCOCCOCCOCCOCCn1cc(CCC(=O)[*:2])nn1)NCCOCCOCCOCCOCCOCCOCCOCCOCCOCCOCCOCCOCCOCCOCCOCCOCCOCCOCCOCCOCCOCCOCCOCCn1cc(CCC(=O)[*:1])nn1; X1 = O=C(C[*:1])N1CCN(C(=O)C[*:2])CCN(C(=O)C[*:3])CC1; 1Nal = N[C@@H](Cc1cccc2ccccc12)C(=O)O

What was measured:
[1] = biological target: T1, P-Selectin:PSGL1 interaction (Homo sapiens, UniProt P16109); test: Receptor ligand inhibition assay (P-Selectin binding to HL-60 cells); type: cell-based; conditions: geomean of n=3
T1 construct: host or cells: HL-60 cells (ATCC, CCL-240) supply the PSGL-1 partner endogenously
T1 sequence (P16109 42-771 limits assumed): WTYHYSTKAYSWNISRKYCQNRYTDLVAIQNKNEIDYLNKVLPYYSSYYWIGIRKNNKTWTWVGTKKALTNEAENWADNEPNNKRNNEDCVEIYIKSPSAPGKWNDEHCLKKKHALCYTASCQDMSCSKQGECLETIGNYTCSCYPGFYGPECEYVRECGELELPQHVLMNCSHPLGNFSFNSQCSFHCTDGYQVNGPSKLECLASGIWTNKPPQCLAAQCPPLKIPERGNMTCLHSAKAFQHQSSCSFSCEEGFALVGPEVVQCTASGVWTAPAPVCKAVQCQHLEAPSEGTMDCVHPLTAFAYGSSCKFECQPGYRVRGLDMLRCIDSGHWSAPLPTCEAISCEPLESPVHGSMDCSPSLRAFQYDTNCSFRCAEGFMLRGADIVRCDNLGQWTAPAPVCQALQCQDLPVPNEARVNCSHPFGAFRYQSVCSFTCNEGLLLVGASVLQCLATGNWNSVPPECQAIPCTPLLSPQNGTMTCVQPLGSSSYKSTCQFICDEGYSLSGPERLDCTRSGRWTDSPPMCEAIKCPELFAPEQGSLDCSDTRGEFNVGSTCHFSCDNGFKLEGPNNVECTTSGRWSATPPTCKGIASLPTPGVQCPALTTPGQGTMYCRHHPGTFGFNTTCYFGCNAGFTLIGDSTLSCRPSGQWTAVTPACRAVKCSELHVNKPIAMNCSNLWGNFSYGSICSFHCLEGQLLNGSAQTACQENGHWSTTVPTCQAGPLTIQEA
Summary of the method: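 Serial dilutions in HEPES buffer, pH 7.4, with 1% BSA and 0.5% DMSO were preincubated 15 min at room temperature with P-selectin (5 nM final). HL-60 cells with far-red WGA and AF488-streptavidin were then added for 2 h, binding read by microplate cytometry; IC50 from four-parameter logistic fit, % inhibition as 100−% response at top concentration.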

[2] = biological target: T2, human P-Selectin protein (Homo sapiens, UniProt P16109); test: SPR binding assay (Biacore); conditions: Affinity KD determined by SPR, recombinant biotinylated human P-Selectin, 25° C.
T2 sequence (P16109 42-830): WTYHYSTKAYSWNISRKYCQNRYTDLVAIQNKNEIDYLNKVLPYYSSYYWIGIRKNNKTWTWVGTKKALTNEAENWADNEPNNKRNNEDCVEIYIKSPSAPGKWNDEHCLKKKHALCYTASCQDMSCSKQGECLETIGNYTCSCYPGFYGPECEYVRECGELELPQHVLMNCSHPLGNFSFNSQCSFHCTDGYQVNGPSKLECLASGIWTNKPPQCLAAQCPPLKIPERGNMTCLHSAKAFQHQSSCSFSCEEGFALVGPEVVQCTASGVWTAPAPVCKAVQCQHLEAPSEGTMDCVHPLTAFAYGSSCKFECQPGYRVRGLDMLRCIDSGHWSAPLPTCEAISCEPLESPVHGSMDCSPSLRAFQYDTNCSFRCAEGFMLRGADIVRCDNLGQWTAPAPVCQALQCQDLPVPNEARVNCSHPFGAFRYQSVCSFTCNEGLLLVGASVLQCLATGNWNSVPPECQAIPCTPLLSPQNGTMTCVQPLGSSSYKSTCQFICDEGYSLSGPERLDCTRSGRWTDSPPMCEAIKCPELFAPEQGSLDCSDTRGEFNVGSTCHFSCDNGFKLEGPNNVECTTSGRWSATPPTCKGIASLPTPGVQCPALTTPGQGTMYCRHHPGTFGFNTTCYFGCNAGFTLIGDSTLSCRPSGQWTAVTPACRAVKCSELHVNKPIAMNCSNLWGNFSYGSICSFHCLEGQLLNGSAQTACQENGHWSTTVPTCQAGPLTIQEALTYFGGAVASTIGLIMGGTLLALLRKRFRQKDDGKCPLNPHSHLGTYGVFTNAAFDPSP
Summary of the method: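 Biotinylated recombinant human P-Selectin was captured on a streptavidin chip (1000-1500 RU), and monomeric peptides were injected in PBS/0.05% Tween 20 with 0.5% DMSO at 25 °C (top 200 nM–50 μM, 2- or 3-fold series). Double-referenced data were fitted to a kinetic model with mass transport to give ka, kd and KD.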

Structure (SMILES): CC(C)C[C@@H]1NC(=O)[C@H](CO)NC(=O)[C@@H]2CCCN2C(=O)[C@H](C(C)C)NC(=O)[C@H](CC(=O)O)NC(=O)[C@@H]2CSCC(=O)N3CCN(CCN(CC3)C(=O)CSC[C@@H](C(=O)N[C@@H](C)C(=O)N[C@@H](CCCCNC(=O)CCc3cn(CCOCCOCCOCCOCCOCCOCCOCCOCCOCCOCCOCCOCCOCCOCCOCCOCCOCCOCCOCCOCCOCCOCCOCCNC(=O)CCCC(=O)NCCOCCOCCOCCOCCOCCOCCOCCOCCOCCOCCOCCOCCOCCOCCOCCOCCOCCOCCOCCOCCOCCOCCOCCn4cc(CCC(=O)NCCCC[C@H](NC(=O)[C@H](C)NC(=O)[C@@H]5CSCC(=O)N6CCN7CCN(CC6)C(=O)CSC[C@H](NC(=O)[C@H](Cc6cccc8ccccc68)NC(=O)[C@H](CC(=O)O)NC(=O)[C@H](C)NC(=O)[C@H](CC(=O)O)NC(=O)[C@@H](NC(=O)[C@H](C)N)CSCC7=O)C(=O)N[C@@H](CC(=O)O)C(=O)N[C@@H](C(C)C)C(=O)N6CCC[C@H]6C(=O)N[C@@H](CO)C(=O)N[C@@H](CC(C)C)C(=O)N6CCC[C@H]6C(=O)N5)C(N)=O)nn4)nn3)C(N)=O)NC(=O)[C@@H]3CCCN3C1=O)C(=O)CSC[C@H](NC(=O)[C@H](C)N)C(=O)N[C@@H](CC(=O)O)C(=O)N[C@@H](C)C(=O)N[C@@H](CC(=O)O)C(=O)N[C@@H](Cc1cccc3ccccc13)C(=O)N2 [BCY12258] (I: H-ACDAD[1Nal]CDVPSLPCAK-NH2 / II: H-ACDAD[1Nal]CDVPSLPCAK-NH2; linker I:2-I:7-I:14, II:2-II:7-II:14 via X1; linker I:16-II:16 via X2)
- IC50 ([1]; 5 nM P-Selectin, HL-60 cells, read-out: IC50): > 97.7 nM
- Inhibition at top concentration ([1]; 100−% response at top concentration): 57%
- Kd [2]: 0.409 nM
